13 molecules from patent US20260184704A1, “NLRP3 INFLAMMASOME INHIBITORS AND USES THEREOF” (Insilico Medicine IP Limited, priority 2023, published 2026) can be followed below.

One experiment addresses T1, NLRP3 (Homo sapiens, UniProt Q96P20).
T1 construct: purchased ICE YM2306T-H06MHS
Description: NLRP3 Enzymatic Activity ADP-Glo Assay (Example B-4). The note with it: hydrolysis of ATP by NLRP3; NLRP3 15 nM, ATP 1 μM; read-out: NLRP3_ADP-Glo_IC50 (nM), Example B-4. The experiment is classed as biochemical. The protocol: Example B-4: NLRP3 Enzymatic Activity ADP-Glo Assay
NLRP3 activity test experiment, measuring the hydrolysis of NLRP3 on the substrate ATP using the ADP-Glo assay. First, after adding an inhibitor containing 0.5% DMSO with Echo, add 5 μL of NLRP3 (ICE, YM2306T-H06MHS) enzyme solution to each well, centrifuge at 1000 rpm for 1 min at room temperature and react for 10 min. Then add 5 μL of ATP (Promega, V915A) substrate solution to each well for 90 min at room temperature; NLRP3 and ATP were prepared in 50 mM HEPES, 10 mM MgCl2, 0.01% Brij-35, 1 mM EGTA, and 2 mM DTT buffers at final concentrations of 15 nM and 1 μM, respectively. Subsequently, 10 μL ADP-Glo reagent solution (Promega, V9102) was added into each assay well, centrifuged at 1000 rpm for 1 min, and then incubated at room temperature for 45 min. Finally, 20 μL ADP-Glo detection solution (Promega, V9102) is added to each well, centrifuged at 1000 rpm for 1 min and reacted for 45 min at room temperature. The luminescence signal values were read using a BMG instrument and the IC50 values were determined by fitting the data to an S-shaped dose-response curve using nonlinear regression.

Experiment [1] has as its system THP-1 cells, IL-1β release. Description: IL-1β Release THP-1 Assay (Example B-3). It counts as cell-based. The note with it: Homo sapiens; PMA-differentiated THP-1 cells, LPS then Nigericin, IL-1β by Elisa; read-out: Potency, THP-1 IL-1β, IC50 (nM), Example B-3. The protocol: Example B-3: IL-1β Release THP-1 Assay
THP-1 cells Culture RPMI1640 medium, 10% FBS, 1% PS, 55 uM β-Mer at 37° C. & 5% CO2 incubator.
IL-1β Release Detection • 1) Seed THP-1 in complete RPMI 1640 medium containing PMA into 96 well plate coated with poly-L-lysin incubate for 24 hours. • 2) Remove medium, wash the differentiated THP-1 cells with PBS, add FBS free RPMI 1640 medium. • 3) Add LPS and incubate for 3 hours at 37° C. & 5% CO2 incubator. • 4) Add compounds and incubate for 30 minutes at 37° C. & 5% CO2 incubator. • 5) Add Nigericin and incubate for 1 hour at 37° C. & 5% CO2 incubator. • 6) Collect supernatant to test IL-1β by Elisa.
• a) Assay robustness check with DMSO and Low control data:
[formula] • X: cpd concentration • Y: change % • Top and Bottom: Plateaus in same units as Y • logIC50: same log units as X • HillSlope: Slope factor or Hill slope

A further experiment has as its target T2, hERG (Homo sapiens, UniProt Q12809).
T2 construct: expressed in transfected cells
Description: hERG Screening Assay Using Electrophysiological Manual Patch-Clamp (Example B-5). To be noted: hERG-CHO cells, whole-cell manual patch clamp, room temperature; read-out: hERG inhibition_IC50 (μM), Example B-5. It counts as cell-based. The protocol:
Example B-5: hERG Screening Assay Using Electrophysiological Manual Patch-Clamp
Cell lines: hERG-CHO cells
Method: CHO cells stably expressing the transcript of hERG were investigated by whole-cell manual patch clamp technique. hERG-CHO cells were cultured in 35 mm dishes to a maximum 70-80% confluence at 37° C. 5% CO2 incubator. The culture media (F12 medium (Invitrogen 11765062, ThermoFisher, USA) supplemented with 10% fetal bovine serum (Invitrogen 10099141, ThermoFisher, USA), 100 μg/mL G418 (Invitrogen 11811023, ThermoFisher, USA) and 100 μg/mL Hygromycin B (Invitrogen 10687010, ThermoFisher, USA)) was removed and the hERG-CHO cells were washed with extracellular solution (in mM): 140 NaCl, 5 KCl, 1 CaCl2), 1.25 MgCl2, 10 HEPES and 10 Glucose, pH 7.4 with NaOH. Then the cells were dissociated with 0.25% Trypsin-EDTA for 3-5 min, after that, the digestion solution was removed and the cells were resuspended in the extracellular solution with pipette by pipetting up and down several times. Resuspended cells were transferred to dishes for recording and cells were perfused with extracellular solution. Electrodes (a tip resistance of 3-5 MegOhm) were pulled from borosilicate grass pipette (Sutter instrument BF150-86-10) and filled with intracellular solution (in mM): 140 KCl, 1 MgCl2, 1 CaCl2), 10 EGTA and 10 HEPES, pH 7.2 with KOH. Data were obtained using a patch-clamp amplifier, signals were filtered at 2 kHz and sampled at frequencies of 10 kHz using pClamp 10 software. The cells were held at −100 mV and hERG potassium currents were activated by a 2 s depolarization potential of +20 mV followed by a repolarization potential of −50 mV for Is then back to the holding potential. Experiments were performed at room temperature.
Data analysis: Data were retrieved and analyzed using pClamp 10, GraphPad Prism 8 and Excel software. The peak amplitude of hERG currents were measured using clampfit and exported to Excel and GraphPad Prism 8 for subsequent analysis.
where Y is the inhibition % corresponding to X, [X] is the Log value of concentration of compound in the external solution and HillSlope is the Hill coefficient. The ratio of inhibition was calculated by using the equation: Inhibition=(1−I/Io)*100%, where Io and I are the current amplitude measured in control and in the presence of compounds, respectively. n is not less than 2 cells for each concentration.
Results: Compounds IC50 on hERG and concentration-response curves
For orientation: The hERG channel carries a current that helps repolarise heart muscle cells.

T1 sequence (Q96P20 whole entry): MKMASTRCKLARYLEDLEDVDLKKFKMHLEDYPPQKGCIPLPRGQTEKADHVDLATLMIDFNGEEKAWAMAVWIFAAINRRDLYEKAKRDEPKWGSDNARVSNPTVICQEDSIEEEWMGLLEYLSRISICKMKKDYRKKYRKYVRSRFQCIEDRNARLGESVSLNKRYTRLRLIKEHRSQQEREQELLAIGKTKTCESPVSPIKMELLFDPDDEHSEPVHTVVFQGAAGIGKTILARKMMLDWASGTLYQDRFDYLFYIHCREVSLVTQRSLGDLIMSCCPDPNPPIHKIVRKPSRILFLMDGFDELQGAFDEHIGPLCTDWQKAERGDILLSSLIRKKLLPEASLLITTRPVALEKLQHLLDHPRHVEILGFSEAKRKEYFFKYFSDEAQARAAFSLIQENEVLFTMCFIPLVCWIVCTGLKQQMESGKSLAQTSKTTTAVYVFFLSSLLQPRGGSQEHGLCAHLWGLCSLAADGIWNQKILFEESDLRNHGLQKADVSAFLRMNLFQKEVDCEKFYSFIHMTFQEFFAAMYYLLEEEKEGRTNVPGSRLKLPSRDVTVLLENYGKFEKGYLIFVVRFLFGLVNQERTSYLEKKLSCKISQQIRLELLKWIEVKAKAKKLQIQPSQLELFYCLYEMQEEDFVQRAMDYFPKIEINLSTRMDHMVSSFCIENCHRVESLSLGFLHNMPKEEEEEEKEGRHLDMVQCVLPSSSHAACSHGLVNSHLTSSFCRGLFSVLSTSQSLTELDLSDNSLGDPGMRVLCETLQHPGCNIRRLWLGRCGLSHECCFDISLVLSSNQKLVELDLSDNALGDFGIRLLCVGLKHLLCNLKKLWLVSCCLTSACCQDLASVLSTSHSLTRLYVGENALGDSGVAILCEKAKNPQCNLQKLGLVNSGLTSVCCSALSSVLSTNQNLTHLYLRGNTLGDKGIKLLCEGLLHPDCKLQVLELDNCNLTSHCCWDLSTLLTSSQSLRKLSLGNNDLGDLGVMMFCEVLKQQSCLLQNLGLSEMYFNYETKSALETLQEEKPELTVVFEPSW
T2 sequence (Q12809 whole entry): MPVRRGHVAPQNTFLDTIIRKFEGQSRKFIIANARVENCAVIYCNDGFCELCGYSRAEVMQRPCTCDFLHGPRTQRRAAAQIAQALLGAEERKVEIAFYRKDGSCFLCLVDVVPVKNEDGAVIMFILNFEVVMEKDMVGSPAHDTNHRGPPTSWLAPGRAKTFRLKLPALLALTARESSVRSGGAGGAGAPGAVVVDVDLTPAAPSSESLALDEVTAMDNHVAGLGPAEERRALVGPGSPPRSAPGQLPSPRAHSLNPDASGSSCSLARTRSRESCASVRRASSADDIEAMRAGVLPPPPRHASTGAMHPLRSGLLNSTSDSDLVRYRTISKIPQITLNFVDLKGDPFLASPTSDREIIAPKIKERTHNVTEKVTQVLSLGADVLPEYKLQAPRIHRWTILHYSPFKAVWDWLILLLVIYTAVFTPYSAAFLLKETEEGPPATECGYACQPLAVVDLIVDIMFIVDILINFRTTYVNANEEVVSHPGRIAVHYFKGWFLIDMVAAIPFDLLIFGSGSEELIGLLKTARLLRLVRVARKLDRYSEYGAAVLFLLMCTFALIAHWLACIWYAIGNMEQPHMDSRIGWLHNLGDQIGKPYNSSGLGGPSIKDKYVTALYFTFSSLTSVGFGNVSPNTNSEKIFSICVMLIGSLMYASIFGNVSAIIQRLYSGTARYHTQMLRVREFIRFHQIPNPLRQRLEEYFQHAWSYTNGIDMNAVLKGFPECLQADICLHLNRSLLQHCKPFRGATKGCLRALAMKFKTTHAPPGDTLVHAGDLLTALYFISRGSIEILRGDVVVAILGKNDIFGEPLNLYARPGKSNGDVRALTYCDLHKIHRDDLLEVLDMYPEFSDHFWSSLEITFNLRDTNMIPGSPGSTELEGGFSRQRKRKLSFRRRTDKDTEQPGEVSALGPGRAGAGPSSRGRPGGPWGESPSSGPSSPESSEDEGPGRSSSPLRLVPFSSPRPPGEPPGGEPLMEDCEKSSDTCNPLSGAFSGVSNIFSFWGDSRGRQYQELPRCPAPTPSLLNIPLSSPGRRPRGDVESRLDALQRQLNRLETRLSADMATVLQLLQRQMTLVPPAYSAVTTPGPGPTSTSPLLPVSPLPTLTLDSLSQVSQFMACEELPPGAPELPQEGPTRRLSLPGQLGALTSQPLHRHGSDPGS

Turning to `Cc1cc(C(F)(F)F)cc(O)c1C1=NN=C(N[C@H]2C[C@@](C)(O)C2)SC1` [Compound 10], the IC50 at NLRP3 is 10 to 100 nM; in experiment [1], 10 to 100 nM; on hERG, over 30 µM.

As for `Cc1cc2c(c(O)c1C1=NN=C(N[C@H]3C[C@@](C)(O)C3)SC1)CCO2` [Compound 31], the IC50 at NLRP3 was 10 to 100 nM; in experiment [1], 10 to 100 nM; at hERG, over 30 µM.

As to `Cc1cc(C(F)(F)F)cc(O)c1C1=NN=C(N[C@@H]2C[C@@H](F)CN(C)C2)SC1` [Compound 8], the IC50 on NLRP3 is 10 to 100 nM; in experiment [1], 10 to 100 nM; on hERG, 19.1 µM.

As to `COc1cc(C)c(C2=NN=C(N[C@@H]3CCCN(C)C3)SC2)c(O)c1` [Compound 23], the IC50 on NLRP3 is 10 to 100 nM; in experiment [1], under 10 nM.

On to `Cc1cc(C(F)(F)F)cc(O)c1C1=NN=C(N[C@@H]2CCCN(C)C2)SC1` [Compound 1], for which the IC50 at NLRP3 was 10 to 100 nM; in experiment [1] it was under 10 nM.

For the molecule `Cc1cc(C(F)(F)F)cc(O)c1C1=NN=C(N2CCC3CCN(C)CC32)SC1` (stereo not shown) [Compound 35], the IC50 (on NLRP3; in experiment [1]) was 10 to 100 nM throughout.

In the case of `Cc1cc(Cl)cc(O)c1C1=NN=C(N[C@H]2C[C@@](C)(O)C2)CS1` [Compound 204], the IC50 on NLRP3 was 10 to 100 nM; in experiment [1], under 10 nM.

In the case of `Cc1cc2c(c(O)c1C1=NN=C(N[C@H]3C[C@@](C)(O)C3)SC1)CC2` [Compound 59], the IC50 was under 10 nM on NLRP3, under 10 nM in experiment [1] and over 30 µM on hERG.

For `Cc1cc2c(c(O)c1C1=NN=C(N[C@@H]3CCCN(C)C3)SC1)CCO2` [Compound 28], the IC50 on NLRP3 is 10 to 100 nM; in experiment [1] it was under 10 nM; at hERG it was 29.4 µM.

In the case of `C[C@]1(O)C[C@@H](NC2=NN=C(c3c(C(F)(F)F)cc4c(c3O)CCO4)CS2)C1` [Compound 58], the IC50 (at NLRP3; in experiment [1]) was 10 to 100 nM throughout.

`C[C@]1(O)C[C@@H](NC2=NN=C(c3c(Cl)cc4c(c3O)CCO4)CS2)C1` [Compound 60]: the IC50 (at NLRP3; in experiment [1]) was 10 to 100 nM throughout.

As for `Cc1cc2c(c(O)c1C1=NN=C(N[C@H]3C[C@@](C)(N)C3)SC1)CC2` [Compound 68], the IC50 (at NLRP3; in experiment [1]) was 10 to 100 nM each time.

For the molecule `Cc1cc2c(c(O)c1C1=NN=C(N[C@@H]3CCCN(C)C3)CS1)CCO2` [Compound 205], the IC50 (on NLRP3; in experiment [1]) was under 10 nM each time.
